Results: patent publication US9296741B2, “Bromodomain inhibitors” (priority 2012, dated 2016)
pEC50, pKi: −log10 of the molar value.

How the values were obtained:
[1] = test system: breast cancer cell line MX-1; test: MX-1 cell line proliferation assay; format: cell-based, human; conditions: Homo sapiens, MX1, 72 h; MX-1 cells, 3-day proliferation, Cell Titer Glo; read-out: Cellular proliferation: EC50
[2] = Human liver microsome stability assay; format: in vitro ADME; conditions: both sexes, human, microsomes, pH 7.4
[3] = Rat liver microsome stability assay; format: in vitro ADME; conditions: rat liver microsomes (male Sprague-Dawley), 0.5 μM test compound, 0.25 mg/mL microsomal protein, pH 7.4, 37° C.; read-out: Stability in rat liver microsomes (t1/2 in minutes)
[4] = test system: LPS induced IL-6 production; test: LPS (lipopolysaccharide) induced IL-6 production mouse assay; format: in vivo; conditions: Mus musculus, read-out: Inhibition of LPS induced IL-6 production in Mice, % inhibition at 3 mg/kg; 3 mg/kg oral, 1 h before LPS; serum IL-6 2 h after LPS
[5] = molecular target: human BRD4 first bromodomain (BDI_K57-E168) (Homo sapiens (Human), UniProt O60885); test: TR-FRET bromodomain binding assay, BRD4 first bromodomain
[6] = molecular target: human BRD4 second bromodomain (BDII_E352-M457) (Homo sapiens (Human), UniProt O60885); test: TR-FRET bromodomain binding assay, BRD4 second bromodomain
[7] = Mouse liver microsome stability assay; format: in vitro ADME; conditions: male, CD1, mouse, microsomes, pH 7.4

Compound	pEC50 [1]	half-life at 0.5 μM [2] [min]	half-life at 0.5 μM [3] [min]	inhibition in vivo at 3 mg/kg [4] [%]	pKi [5]	pKi [6]	half-life at 0.5 μM [7] [min]
Cn1cc(-c2cc(NS(C)(=O)=O)cc(Cl)c2Oc2ccccc2)c2cc[nH]c2c1=O [Example 28, N-[3-chloro-5-(6-methyl-7-oxo-6,7-dihydro-1H-pyrrolo[2,3-c]pyridin-4-yl)-4-phenoxyphenyl]methanesulfonamide]	7.62	21	9	52	–	–	–
CCS(=O)(=O)c1ccc(Oc2cccc(CO)c2)c(-c2cn(C)c(=O)c3[nH]ccc23)c1 [Example 317, 4-{5-(ethylsulfonyl)-2-[3-(hydroxymethyl)phenoxy]phenyl}-6-methyl-1,6-dihydro-7H-pyrrolo[2,3-c]pyridin-7-one]	7.77	88	115	–	8.17	8.44	83
Cn1cc(-c2ccc(OCC3CC3)c(-c3cn(C)c(=O)c4[nH]ccc34)c2)cn1 [Example 318, 4-[2-(cyclopropylmethoxy)-5-(1-methyl-1H-pyrazol-4-yl)phenyl]-6-methyl-1,6-dihydro-7H-pyrrolo[2,3-c]pyridin-7-one]	< 5.52	35	24	–	6.46	6.20	13
Cn1cc(-c2cc(S(=O)(=O)N3CCc4ccccc43)ccc2Oc2ccc(F)cc2F)c2cc[nH]c2c1=O [Example 319, 4-[2-(2,4-difluorophenoxy)-5-(2,3-dihydro-1H-indol-1-ylsulfonyl)phenyl]-6-methyl-1,6-dihydro-7H-pyrrolo[2,3-c]pyridin-7-one]	6.36	2	2	–	6.43	8.00	2
CCS(=O)(=O)c1ccc(Oc2ccc(F)cc2F)c(-c2cn(C)c(=O)c3[nH]ncc23)c1 [Example 322, 4-[2-(2,4-difluorophenoxy)-5-(ethylsulfonyl)phenyl]-6-methyl-1,6-dihydro-7H-pyrazolo[3,4-c]pyridin-7-one]	7.18	> 120	57	–	6.74	7.34	> 120
Cn1cc(-c2cc(C3=CCN(C(=O)OC(C)(C)C)CC3)ccc2OCC2CC2)c2cc[nH]c2c1=O [Example 325, tert-butyl 4-[4-(cyclopropylmethoxy)-3-(6-methyl-7-oxo-6,7-dihydro-1H-pyrrolo[2,3-c]pyridin-4-yl)phenyl]-3,6-dihydropyridine-1(2H)-carboxylate]	6.15	21	10	–	6.81	6.70	8
Cn1cc(-c2cc(-c3ccc(N)nc3)ccc2OCC2CC2)c2cc[nH]c2c1=O [Example 326, 4-[5-(6-aminopyridin-3-yl)-2-(cyclopropylmethoxy)phenyl]-6-methyl-1,6-dihydro-7H-pyrrolo[2,3-c]pyridin-7-one]	6.54	112	5	–	6.84	6.57	27
CCS(=O)(=O)c1ccc(OCC2CC2(F)F)c(-c2cn(C)c(=O)c3[nH]c(C(=O)NCC(F)(F)F)cc23)c1 (stereo not shown) [Example 327, 4-{2-[(2,2-difluorocyclopropyl)methoxy]-5-(ethylsulfonyl)phenyl}-6-methyl-7-oxo-N-(2,2,2-trifluoroethyl)-6,7-dihydro-1H-pyrrolo[2,3-c]pyridine-2-carboxamide]	7.45	> 120	> 120	–	8.07	8.38	> 120
Cn1cc(-c2cc(S(C)(=O)=O)ccc2Nc2ccc(F)cc2)c2cc[nH]c2c1=O [Example 332, 4-{2-[(4-fluorophenyl)amino]-5-(methylsulfonyl)phenyl}-6-methyl-1,6-dihydro-7H-pyrrolo[2,3-c]pyridin-7-one]	7.27	65	70	–	7.52	7.51	> 120
Cn1cc(-c2cc(CC#N)ccc2OCC2CC2)c2cc[nH]c2c1=O [Example 336, [4-(cyclopropylmethoxy)-3-(6-methyl-7-oxo-6,7-dihydro-1H-pyrrolo[2,3-c]pyridin-4-yl)phenyl]acetonitrile]	6.94	44	5	–	7.12	6.82	17
CCS(=O)(=O)Nc1ccc(Oc2ccc(F)cc2F)c(-c2cn(C)c(=O)c3[nH]c(CO)cc23)c1 [Example 337, N-{4-(2,4-difluorophenoxy)-3-[2-(hydroxymethyl)-6-methyl-7-oxo-6,7-dihydro-1H-pyrrolo[2,3-c]pyridin-4-yl]phenyl}ethanesulfonamide]	7.80	> 120	> 120	–	8.37	8.38	> 120
CCS(=O)(=O)Nc1ccc(Oc2ccc(F)cc2F)c(-c2cn(C)c(=O)c3[nH]c(C(=O)N4CCN(C)CC4)cc23)c1 [Example 338, N-[4-(2,4-difluorophenoxy)-3-{6-methyl-2-[(4-methylpiperazin-1-yl)carbonyl]-7-oxo-6,7-dihydro-1H-pyrrolo[2,3-c]pyridin-4-yl}phenyl]ethanesulfonamide]	7.11	39	29	–	9.07	7.90	20
CCS(=O)(=O)Nc1ccc(Oc2ccc(F)cc2F)c(-c2cn(C)c(=O)c3[nH]c(CN4CCN(C)CC4)cc23)c1 [Example 339, N-[4-(2,4-difluorophenoxy)-3-{6-methyl-2-[(4-methylpiperazin-1-yl)methyl]-7-oxo-6,7-dihydro-1H-pyrrolo[2,3-c]pyridin-4-yl}phenyl]ethanesulfonamide]	7.11	100	76	–	9.10	7.50	67
CCS(=O)(=O)N(CC1CCCO1)c1ccc(Oc2ccc(F)cc2F)c(-c2cn(C)c(=O)c3[nH]ccc23)c1 (stereo not shown) [Example 345, N-[4-(2,4-difluorophenoxy)-3-(6-methyl-7-oxo-6,7-dihydro-1H-pyrrolo[2,3-c]pyridin-4-yl)phenyl]-N-(tetrahydrofuran-2-ylmethyl)ethanesulfonamide]	6.32	2	4	–	6.89	7.49	2
CCS(=O)(=O)N(CCC(F)(F)F)c1ccc(Oc2ccc(F)cc2F)c(-c2cn(C)c(=O)c3[nH]ccc23)c1 [Example 346, N-[4-(2,4-difluorophenoxy)-3-(6-methyl-7-oxo-6,7-dihydro-1H-pyrrolo[2,3-c]pyridin-4-yl)phenyl]-N-(3,3,3-trifluoropropyl)ethanesulfonamide]	6.67	4	5	–	7.02	7.80	2
Cn1cc(-c2cc(-c3ccc(F)nc3)ccc2OCC2CC2)c2cc[nH]c2c1=O [Example 348, 4-[2-(cyclopropylmethoxy)-5-(6-fluoropyridin-3-yl)phenyl]-6-methyl-1,6-dihydro-7H-pyrrolo[2,3-c]pyridin-7-one]	6.00	> 120	2	–	6.80	6.37	25
CCS(=O)(=O)Nc1ccc(Oc2ccc(F)cc2F)c(-c2cn(C)c(=O)c3[nH]cc(C=O)c23)c1 [Example 349, N-[4-(2,4-difluorophenoxy)-3-(3-formyl-6-methyl-7-oxo-6,7-dihydro-1H-pyrrolo[2,3-c]pyridin-4-yl)phenyl]ethanesulfonamide]	7.49	> 120	39	–	8.18	8.51	36
CCS(=O)(=O)Nc1ccc(Oc2ccc(F)cc2F)c(-c2cn(C)c(=O)c3[nH]cc(CN4CCN(C)CC4)c23)c1 [Example 351, N-[4-(2,4-difluorophenoxy)-3-{6-methyl-3-[(4-methylpiperazin-1-yl)methyl]-7-oxo-6,7-dihydro-1H-pyrrolo[2,3-c]pyridin-4-yl}phenyl]ethanesulfonamide]	5.96	76	66	–	6.65	6.82	30
Cn1cc(-c2cc(-c3cccc(C#N)c3)ccc2OCC2CC2)c2cc[nH]c2c1=O [Example 353, 4′-(cyclopropylmethoxy)-3′-(6-methyl-7-oxo-6,7-dihydro-1H-pyrrolo[2,3-c]pyridin-4-yl)biphenyl-3-carbonitrile]	6.10	40	8	–	6.80	6.59	10
Cn1cc(-c2cc(S(=O)(=O)N3CCC(O)CC3)ccc2OCC2CC2)c2cc[nH]c2c1=O [Example 354, 4-{2-(cyclopropylmethoxy)-5-[(4-hydroxypiperidin-1-yl)sulfonyl]phenyl}-6-methyl-1,6-dihydro-7H-pyrrolo[2,3-c]pyridin-7-one]	7.02	23	41	–	7.18	7.89	24
